The results in this text go back to publication PMC3559867, “Metabolites of Ginger Component [6]-Shogaol Remain Bioactive in Cancer Cells and Have Low Toxicity in Normal Cells: Chemical Synthesis and Biological Evaluation” (PLoS ONE, 2013).

For orientation: IC50 means the concentration at which inhibition is half-maximal. A higher IC50 goes with lower potency.

Bounds are passed on as bounds.

Assay [1] relates to IMR-90 human normal lung cells. As to the kind of experiment: MTT cytotoxicity, normal lung cells IMR-90. The assay is classed as cell-based. Conditions: 24 h treatment, toxicity to normal cells. How it is done: (§1) Cell growth inhibition was determined by a MTT colorimetric assay. Human colon cancer cells HCT-116, human lung cancer cells H-1299, human colon fibroblast cells CCD-18Co, and human lung fibroblast cells IMR-90 were plated in 96-well microtiter plates with 3000 cells/well and allowed to attach for 24 h at 37°C. […] After the cells were cultured for 24 h, the medium was aspirated and cells were treated with 200 µL fresh medium containing 2.41 mmol/L MTT. […] The reading reflected the number of viable cells and was expressed as a percentage of viable cells in the control. Both HCT-116 and H-1299 cells were cultured in McCoy’s 5A medium. CCD-18Co and IMR-90 cells were cultured in Eagle’s modified essential medium (EMEM). All of the above media were supplemented with 10% fetal bovine serum, 1% penicillin/streptomycin, and 1% glutamine, and the cells were kept in a 37°C incubator with 95% humidity and 5% CO2.

Assay [2] has as its system CCD-18Co human normal fibroblast colon cells. Nature of the assay: MTT cytotoxicity, normal colon cells CCD-18Co. In kind it is cell-based. Conditions: 24 h treatment, toxicity to normal cells. As for the experimental part:
as §1

In assay [3] the test system is HCT-116 human colon cancer cells. As to the kind of experiment: MTT growth inhibition, HCT-116. The conditions noted are these: 24 h treatment, 0 to 80 µM. The assay is classed as cell-based. As for the experimental part: as §1
Assay [4] relates to H-1299 human lung cancer cells. Nature of the assay: MTT growth inhibition, H-1299. Conditions: 24 h treatment, 0 to 80 µM. In kind it is cell-based. As for the experimental part: as §1
The subject of another assay is HCT-116 cells. Nature of the assay: TUNEL apoptosis assay, HCT-116. The assay is classed as cell-based, human. Conditions: 20 or 40 µM, versus DMSO. How it is done: (§2) HCT-116 and H1299 cells were seeded in 6-well plates at 1.10^5 cells/well and incubated at 37°C in 5% CO2 incubator. After 24 hours, fresh media supplemented with DMSO (control), [6]-shogaol, M2, M6, or M13 metabolites (20 µM or 40 µM) were added to the wells. After 6 or 24 hours incubation at 37°C in 5% CO2 incubator, cells were washed and pre-treated for 15 min at room temperature with a solution of 20 µg/ml proteinase K. Cells were then washed twice with phosphate buffer saline pH 7.4 (PBS) and fixed for 10 min at room temperature using 10% neutral formaldehyde solution. After 2 washes in ddH2O, cells were resuspended in 100 µL ddH2O and applied on silanized microscope slides. Slides were incubated overnight at 37°C, and washed twice with PBS. TUNEL assay was then carried out according to the manufacturer’s protocol. Cells were observed under 400X power using a Zeiss microscope A1 (Thornwood, NY). 10 fields per slide were evaluated, and TUNEL+ cells (with brown coloration in the nucleus) were expressed as a percentage of the total number of cells contained in a field.

Another assay relates to H-1299 cells. Nature of the assay: TUNEL apoptosis assay, H-1299. The assay is classed as cell-based, human. Conditions: H-1299, 24 hours of incubation, 20 or 40 µM, versus DMSO; M2 not significant at 20 µM. As for the experimental part:
as §2

The mark [5] stands for this setting: HCT-116, 24 hours of incubation.

Consider `CCCCCC(CC(O)CCc1ccc(O)c(OC)c1)SCC(N)C(=O)O` (stereo not drawn) [M1, 5-cysteinyl-M6], for which the IC50 in assay [1] was over 100 µM; in assay [2] it was over 100 µM; in assay [3], over 100 µM; in assay [4] (Homo sapiens, NCI-H1299, 24 h), over 100 µM.

With `CCCCCC(CC(=O)CCc1ccc(O)c(OC)c1)SCC(N)C(=O)O` (stereo not drawn) [M2, 5-cysteinyl-[6]-shogaol], the “induction of apoptosis (TUNEL positive cells)” value (shortened to “induction of apoptosis”) in the assay with HCT-116 cells (HCT-116, 6 hours of incubation) is “significantly higher levels of apoptosis”; in the assay on HCT-116 cells (setting [5]), “Significant apoptosis”; with H-1299 cells, “Significant apoptosis”. Besides, the IC50 came out at 98.3 µM in assay [1]; 99.2 µM in assay [2]; 24.4 µM in assay [3]; 24.4 µM in assay [4]; 25.8 µM in assay [4] (Homo sapiens, NCI-H1299, 24 h).

Turning to `CCCCCC(CC(O)CCc1ccc(O)c(OC)c1)SCC(NC(C)=O)C(=O)O` (stereo not drawn) [M4, 5-N-acetylcysteinyl-M6], the IC50 is over 100 µM in assay [1]; over 100 µM in assay [2]; over 100 µM in assay [3]; over 100 µM in assay [4] (Homo sapiens, NCI-H1299, 24 h).

`CCCCCC(CC(=O)CCc1ccc(O)c(OC)c1)SC[C@H](NC(C)=O)C(=O)O` (stereo partly drawn) [M5, 5-N-acetylcysteinyl-[6]-shogaol]: the IC50 was over 100 µM in assay [1]; over 100 µM in assay [2]; 54.3 µM in assay [3]; 54.3 µM in assay [4]; 72.6 µM in assay [4] (Homo sapiens, NCI-H1299, 24 h).

Consider `CCCCCC=CC(O)CCc1ccc(O)c(OC)c1` (stereo not drawn) [M6, 1-(4'-hydroxy-3'-methoxyphenyl)-4-decen-3-ol], for which the “induction of apoptosis” value with HCT-116 cells (setting [5]) and in the assay with H-1299 cells was “did not display any apoptotic effect” throughout. In addition, the IC50 is over 100 µM in assay [1]; over 100 µM in assay [2]; 68.8 µM in assay [3]; 68.8 µM in assay [4]; 61.3 µM in assay [4] (Homo sapiens, NCI-H1299, 24 h).

In the case of `CCCCCC(CC(=O)CCc1ccc(O)c(OC)c1)OC` (stereo not drawn) [M7, 5-methoxy-1-(4'-hydroxy-3'-methoxyphenyl)-decan-3-one], the IC50 in assay [1] was over 100 µM; in assay [2] it was over 100 µM; in assay [3], over 100 µM; in assay [4] (Homo sapiens, NCI-H1299, 24 h), over 100 µM.

`CCCCCCCC(=O)CCc1ccc(O)c(O)c1` [M8, 1-(3',4'-dihydroxyphenyl)-decan-3-one]: the 50% inhibitory concentration (IC50) in assay [1] was over 100 µM; in assay [2] it was over 100 µM; in assay [3] it was 58.8 µM; in assay [4] (Homo sapiens, NCI-H1299, 24 h), over 100 µM.

As for `CCCCCCCC(O)CCc1ccc(O)c(OC)c1` (stereo not drawn) [M9, 1-(4'-hydroxy-3'-methoxyphenyl)-decan-3-ol], the IC50 in assay [1] is over 100 µM; in assay [2], over 100 µM; in assay [3] it was 82.2 µM; in assay [4] (Homo sapiens, NCI-H1299, 24 h), 82.5 µM.

Consider `CCCCCC(CC(=O)CCc1ccc(O)c(OC)c1)SC` (stereo not drawn) [M10, 5-methylthio-1-(4'-hydroxy-3'-methoxyphenyl)-decan-3-one], for which the half-maximal inhibitory concentration (IC50) was over 100 µM in assay [1]; over 100 µM in assay [2]; 78.2 µM in assay [3]; 60.6 µM in assay [4] (Homo sapiens, NCI-H1299, 24 h).

As to `CCCCCCCC(=O)CCc1ccc(O)c(OC)c1` [M11, 1-(4'-hydroxy-3'-methoxyphenyl)-decan-3-one], the IC50 in assay [1] is over 100 µM; in assay [2], over 100 µM; in assay [3] it was 84 µM; in assay [4] (Homo sapiens, NCI-H1299, 24 h), 66.5 µM.

For the molecule `CCCCCC(CC(O)CCc1ccc(O)c(OC)c1)SC` (stereo not drawn) [M12, 5-methylthio-1-(4'-Hydroxy-3'-methoxyphenyl)-decan-3-ol], the half-inhibitory concentration (IC50) in assay [1] was over 100 µM; in assay [2], over 100 µM; in assay [3], over 100 µM; in assay [4] (Homo sapiens, NCI-H1299, 24 h) it was 69.9 µM.

Take `CCCCCC(CC(=O)CCc1ccc(O)c(OC)c1)SCC(NC(=O)CCC(N)C(=O)O)C(=O)NCC(=O)O` (stereo not drawn) [M13, 5-glutathiol-[6]-shogaol]: the “induction of apoptosis” value is “significantly higher levels of apoptosis” in the assay on HCT-116 cells (HCT-116, 6 hours of incubation); “Significant apoptosis” in the assay with HCT-116 cells (setting [5]); “Significant apoptosis” in the assay with H-1299 cells. Also, the IC50 worked out at 57.5 µM in assay [1]; 75.5 µM in assay [2]; 45.5 µM in assay [3]; 47.8 µM in assay [4] (Homo sapiens, NCI-H1299, 24 h).

Turning to `CCCCC[C@@H](CC(=O)CCc1ccc(O)c(OC)c1)SC[C@H](NC(=O)CC[C@H](N)C(=O)O)C(=O)NCC(=O)O` [M13-1], in the assay with HCT-116 cells (HCT-116, 6 hours of incubation), the “induction of apoptosis” value was “higher level of apoptosis”. In addition, the IC50 in assay [3] was 71.2 µM; in assay [4] (Homo sapiens, NCI-H1299, 24 h), 74.4 µM.

Consider `CCCCC[C@H](CC(=O)CCc1ccc(O)c(OC)c1)SC[C@H](NC(=O)CC[C@H](N)C(=O)O)C(=O)NCC(=O)O` [M13-2], for which the “induction of apoptosis” value with HCT-116 cells (HCT-116, 6 hours of incubation) is “higher level of apoptosis”. The IC50 was 54.9 µM in assay [3] and 63.8 µM in assay [4] (Homo sapiens, NCI-H1299, 24 h).

For the molecule `CCCCC/C=C/C(=O)CCc1ccc(O)c(OC)c1` [[6]-shogaol], the “induction of apoptosis” value in the assay on HCT-116 cells (HCT-116, 6 hours of incubation) was “significantly higher levels of apoptosis”; in the assay on HCT-116 cells (setting [5]), “significantly superior to that of both M2 and M13”; with H-1299 cells it was “significantly superior to that of both M2 and M13”. For the same molecule, the concentration for half-maximal inhibition (IC50) in assay [1] turned out to be 36.6 µM; in assay [2], 43.9 µM; in assay [3], 18.2 µM; in assay [4] (Homo sapiens, NCI-H1299, 24 h), 17.9 µM.
